The source of these data is US20220380331A1, “TREATMENT OF CONDITIONS OF THE NERVOUS SYSTEM” (priority 2019, published 2022).

Structures are written as SMILES. “Also recorded” adds a separate entry of the source.

One data set relates to PNN-HEK293 cells. Put plainly: Immunocytochemistry of PNN formation (WFA) with PNNi analogues. The format is cell-based, human. On the procedure:
To compare the efficacy of PNNi, JD009, and JD013 in reducing PNN formation, immunocytochemistry was conducted using the N-acetylgalactosamine-binding lectin WFA to label PNNs. PNN-HEK293 cells were exposed to 0.5 mM and 1 mM of the compounds for 3 days in vitro. […] Quantification of WFA fluorescence intensity per cell was derived in matched regions of interest (ROI) and normalising overall WFA fluorescence intensity to cell number.

A further data set deals with rats. The settings on record: cited from earlier work.
Data set [1] has as its system sensorimotor cortical slices. Kind of data set: Field potentials and paired-pulse protocols in in vitro sensorimotor cortical slices. Further details: species or system rat. On the procedure: FIG. […]): Forelimb (FL) shifts into hindlimb (HL) area of sensorimotor cortex (M1) after perineuronal net inhibitor (PNNi) and spinal cord injury (SCI) combination. PNNi and/or injury independently enhances cortical plasticity in spinal cord injured rats. Intracortical microstimulation (ICMS) was performed at stereotaxic coordinates within a right hemisphere craniotomy 5 mm rostral/caudal to bregma (B) (A) 11 weeks post-injury. Representative heat maps per group illustrate the percentage of animals for each stereotaxic coordinate where HL (B-C) or FL (D-E) movements were able to be elicited. The Lister Hooded rat baseline HL and FL cortical maps (dotted outlines in B-E) were compared to groups with mid-thoracic SCI (B, D) and/or long-term PNNi administration (C, E) to assess structural plasticity. HL movements were unable to be elicited after SCI (B-C). Measurements for FL analysis (K-N) are illustrated in J). After PNNi and/or SCI, FL movements were elicited in areas that previously elicited HL movements (see right of white dotted outline D-E). […] G: Plot of the average field potential amplitudes vs. stimulus intensity per group. Synaptic responses were elicited in cortical layers II/III by electrical stimuli via bipolar electrodes placed in cortical layers V/VI. Recordings were performed on cortical slice at the following coordinates: ML: 2-3 mm and AP 1.40-1.8 mm caudal to bregma. […]

For a further data set, the system named is PNN^+HEK cells. Put plainly: Removal of PNNs in vitro in PNN+HEK cell model (WFA staining). The data set is classed as cell-based, human. The source says:
A previously developed human embryonic kidney 293T (HEK) cell model, engineered to express the essential ECM components (hyaluronan synthase 3 (HAS-3) and HAPLN-1) required to induce the formation of a pericellular PNN-like structure (PNN^+HEK cells) (Kwok et al., 2010), was used to investigate the efficacy of PNNi in removing PNNs in vitro (FIG. 9A-I).

A further data set relates to rat. Conditions: in vivo, po; cited from earlier work.

With `Cc1cc(=O)oc2cc(O)ccc12` [PNNi, 4-methylumbelliferone], the “PNN morphology and expression (WFA fluorescence intensity per cell)” value in the data set on PNN-HEK293 cells (0.5 mM and 1 mM, 3 days in vitro) was “insufficient to cause substantial changes in PNN morphology and expression”. Also, the “PNN morphology and expression (WFA staining intensity)” value in the data set on PNN-HEK293 cells (1 mM and 2 mM (FIG. 14 legend)) was “insufficient to cause substantial changes in PNN morphology and expression”. In addition, the maximum tolerated dose with rats (oral, rats) is recorded as 6000 mg/kg. Besides, the “dose tolerated in rats” value in the data set on rats (rat, in vivo) is reported as “at least 200 mg/kg/day”. Besides, in the data set with rats (rats, 200 mg/kg/day and 40 mg/kg/day for three months), the “mortality in the chronic study” value is listed as “No mortality was reported”. The intracortical synaptic transmission result in data set [1] (combination of SCI and PNNi treatment) is given as “increased intracortical synaptic transmission; also recorded: elevated synaptic transmission”. Moreover, in data set [1] (sham animals, short and long interstimulus intervals), the “paired-pulse inhibition (PPR)” value is given as “not altered”. In the data set with PNN^+HEK cells (two days of treatment, 0.5 mM or 1.0 mM), this compound returned a WFA-positive staining removed of 86.4±4.47%. For the same compound, in the data set on PNN^+HEK cells (within three days post-treatment), the “staining intensity recovered, of baseline lectin binding” value worked out at 43.6±14.6%. The lethal dose in the data set on rat was 6200 mg/kg.
